# Measured values published in publication PMC8273890, “Development of [^18F]AldoView as the First Highly Selective Aldosterone Synthase PET Tracer for Imaging of Primary Hyperaldosteronism” (Journal of Medicinal Chemistry, 2021).
# Entries after “also recorded” stand apart in the source; their conditions may differ.
# Key:
# hCYP11B1 = tested on: hCYP11B1; set-up: method as in PMID 26005536; details: read-out: IC50 CYP11B1; cited from earlier work
# human CYP11B2 [1] = tested on: human CYP11B2; set-up: method as in PMID 26005536; details: cited from earlier work
# [2] = Blood/plasma metabolite analysis by radio-HPLC; assay type: in vivo, female BALB/c mice
# Experimental: Blood metabolite analysis was performed as part of the biodistribution studies (n = 2–3 per time point). Blood samples were collected in heparin-coated tubes, and an aliquot (20 μL) was taken for gamma counting. After centrifugation (5 min, 13,000 rpm), the plasma (∼500 μL) was separated. Plasma proteins were subsequently precipitated with ice-cold acetonitrile (1 mL), and samples were centrifuged (5 min, 13,000 rpm). An aliquot of the supernatant (500 μL) was separated from the pellet and diluted with water (500 μL). The recovery of radioactivity in the supernatant was near quantitative (>95%). Analysis was carried out by radio-HPLC using a Phenomenex Onyx monolithic C-18 column (100 × 10 mm). The mobile phase consisted of water and methanol, and the flow rate was 5 mL/min. An isocratic eluent (10% methanol in water) was used for 3 min, followed by a gradient from 10 to 70% methanol over 7 min.
# CYP11B2 = biological target: T1, CYP11B2 (Homo sapiens, UniProt P19099); assay: Quantitative phosphorimaging (in vitro autoradiography) in human adrenal tissue sections; assay type: binding; details: for NSB (non-specific binding): with 25 μM AldoView
# T1 construct: from tissue
# T1 sequence (P19099 25-503): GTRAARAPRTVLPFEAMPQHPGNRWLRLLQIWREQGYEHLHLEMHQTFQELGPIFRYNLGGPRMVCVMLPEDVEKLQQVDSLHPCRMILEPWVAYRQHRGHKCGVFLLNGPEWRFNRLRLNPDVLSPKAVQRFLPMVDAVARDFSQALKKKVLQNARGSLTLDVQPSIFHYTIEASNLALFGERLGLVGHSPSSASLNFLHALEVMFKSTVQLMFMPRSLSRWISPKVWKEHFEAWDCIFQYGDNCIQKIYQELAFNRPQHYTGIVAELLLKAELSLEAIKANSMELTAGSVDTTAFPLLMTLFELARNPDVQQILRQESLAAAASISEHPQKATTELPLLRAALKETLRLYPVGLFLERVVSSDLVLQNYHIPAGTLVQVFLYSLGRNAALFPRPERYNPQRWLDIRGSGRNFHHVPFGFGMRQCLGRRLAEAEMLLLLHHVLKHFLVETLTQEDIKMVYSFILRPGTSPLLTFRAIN
# Excerpt: Adrenal surgical specimens were obtained from patients with Conn’s disease, Cushing’s disease, pheochromocytoma, and adrenal tumors, who had consented to the use of their tissue for research applications. Ethical approval was obtained from the UK Multicentre Research Ethics Committee (06/Q0104/133). Following routine adrenalectomy, surgical specimens were immediately flash frozen using a slurry of isopentane and dry ice. Cryosections (20 μm) obtained from the frozen tissue blocks were mounted on lysine-coated microscope slides and stored at −80 °C.
# Thawed tissue sections on microscopic slides were dipped in pentane for 5 s to degrease the tissue. This step was required to avoid nonspecific binding (NSB), in particular to medullar fat. Tissue sections were subsequently rehydrated in tris-buffered saline (TBS; pH = 7.5) for 30 min and subsequently incubated with a solution of [^18F]AldoView in TBS for 60 min (1 mL per slide). For determination of the total binding (TB), [^18F]AldoView was diluted with TBS to a concentration of 2 MBq/mL. For the determination of NSB, a solution of the nonradioactive reference compound in ethanol (3.5 mM) was added to a solution of [^18F]AldoView in TBS and diluted to give a final AldoView concentration of 25 μM and a final [^18F]AldoView concentration of 2 MBq/mL. After incubation, unbound [^18F]AldoView was removed by washing the sections in ice-cold TBS (three times for 5 min) and water (1 min). Internal standards were prepared by serial dilution of the [^18F]AldoView solution used for determination of the TB. Tissue sections and internal standards absorbed on filter paper were left to air-dry and subsequently exposed to a phosphor screen (BAS-IP MS; GE Healthcare) overnight. Phosphorimaging was performed on a Typhoon Trio scanner (GE Healthcare). All phosphorimaging experiments were performed in at least three adjacent tissue sections per case, tissue block, and experimental condition (TB, NSB). Quantification of phosphor images was performed using the analysis software ImageJ (version 1.48).[28] Determination of TB and NSB (in kBq/cm^2; Table S1) was based on correlation curves generated from the internal standards. The specific [^18F]AldoView binding was calculated as the difference between TB and NSB.
# human CYP11B2 [3] = assay: Inhibition of human CYP11B2 (aldosterone synthase), literature values; assay type: biochemical; details: human isoforms
# [4] = Ex vivo biodistribution in mice (gamma counting); set-up: species or system female BALB/c mice
# Experimental: [^18F]AldoView (6.6 ± 1.9 MBq, formulated in saline containing 5% ethanol) was administered intravenously into the tail vein of female wild-type BALB/c mice (n = 3–4 per time point) without anesthesia. At designated time points (15, 30, 60, and 120 min postinjection), animals were anesthetized with isoflurane (4% v/v in oxygen) and the blood was taken by cardiac puncture. Mice were subsequently sacrificed by cervical dislocation. The organs of interest were sampled and weighed, and the radioactivity content was measured by automated gamma counting (PerkinElmer Wizard^2). Results were expressed as % ID/g bodyweight.
# [5] = Dynamic PET/CT imaging in mice; assay type: in vivo, female BALB/c mice; details: PET
# Experimental: Dynamic PET imaging was performed using a nanoScan PET-CT system manufactured by Mediso (Medical Imaging Systems, Budapest, Hungary). Mice (n = 6) were anaesthetized with isoflurane (2% v/v in oxygen) and placed on the preheated bed of the scanner (set at 38 °C). [^18F]AldoView (7.3 ± 4.1 MBq, formulated in 100–150 μl saline containing 5% ethanol) was injected into the tail vein via intravenous cannulation. After injection, the catheter was carefully removed. The breathing rate and body temperature of the animals were closely monitored during the dynamic PET scans and, if necessary, the isoflurane dose was adjusted. Scans were recorded over 1 h, and the animals were subsequently sacrificed by cervical dislocation. Quantification of the tissue uptake (in % ID/g) was carried out based on the regions of interest manually drawn on the CT using the software package VivoQuant 1.23 (inviCRO, Boston, USA).
# [6] = specimen 1b (high), case 1, PHA
# [7] = specimen 2b (high), case 2, PHA
# [8] = specimen 2c (high), case 2, PHA
# [9] = specimen 3b (high), case 3, PHA
# [10] = specimen 6a, case 6, pheochromocytoma
# [11] = specimen 6b, case 6, pheochromocytoma
# [12] = specimen 7a, case 7, adrenal tumor
# [13] = biodistribution, 15 min postinjection
# [14] = biodistribution, 30 min postinjection (peak)
compound,measurement,setting,value
"Fc1cncc(-c2nc3cc(F)c(F)cc3n2C2CC2)c1 [Compound 3, 1-Cyclopropyl-5,6-difluoro-2-(5-fluoropyridin-3-yl)-1H-benzo[d]imidazole, reference compound]",IC50,hCYP11B1,435 nM
same,IC50,human CYP11B2 [1],4.7 nM
Fc1cc2nc(-c3cncc([18F])c3)n(C3CC3)c2cc1F [[^18F]AldoView],intact parent fraction in blood,[2]; 15 min postinjection,59%
same,intact parent fraction in blood,[2]; 30 min postinjection,29%
same,intact parent fraction in blood,[2]; 60 min postinjection,21%
same,tracer in blood,[2]; 120 min postinjection,"still detectable in blood at 120 min, although at low levels"
same,tracer binding in specimens from control subjects,CYP11B2; n = 3,2.6 ± 1.8 kBq/cm^2
same,tracer binding in CYP11B2-negative areas in specimens from patients with PHA,CYP11B2; n = 4,3.2 ± 1.1 kBq/cm^2
same,SB (specific binding),"CYP11B2; specimen 1a, case 1, PHA",19.7 kBq/cm2
same,TB (total binding),"CYP11B2; specimen 1a, case 1, PHA",20.1 kBq/cm2
same,NSB (non-specific binding),"CYP11B2; specimen 1a, case 1, PHA",0.4 kBq/cm2
same,SB (specific binding),CYP11B2; [6],8.6 kBq/cm2
same,TB (total binding),CYP11B2; [6],17.9 kBq/cm2
same,NSB (non-specific binding),CYP11B2; [6],9.3 kBq/cm2
same,SB (specific binding),"CYP11B2; specimen 1b (low), case 1, PHA",4.8 kBq/cm2
same,TB (total binding),"CYP11B2; specimen 1b (low), case 1, PHA",5.6 kBq/cm2
same,NSB (non-specific binding),"CYP11B2; specimen 1b (low), case 1, PHA",0.9 kBq/cm2
same,SB (specific binding),"CYP11B2; specimen 2a, case 2, PHA",2.5 kBq/cm2
same,TB (total binding),"CYP11B2; specimen 2a, case 2, PHA",2.8 kBq/cm2
same,NSB (non-specific binding),"CYP11B2; specimen 2a, case 2, PHA",0.3 kBq/cm2
same,SB (specific binding),CYP11B2; [7],18.9 kBq/cm2
same,TB (total binding),CYP11B2; [7],20.2 kBq/cm2
same,NSB (non-specific binding),CYP11B2; [7],1.3 kBq/cm2
same,SB (specific binding),"CYP11B2; specimen 2b (low), case 2, PHA",2.1 kBq/cm2
same,TB (total binding),"CYP11B2; specimen 2b (low), case 2, PHA",2.4 kBq/cm2
same,NSB (non-specific binding),"CYP11B2; specimen 2b (low), case 2, PHA",0.3 kBq/cm2
same,SB (specific binding),CYP11B2; [8],19.1 kBq/cm2
same,TB (total binding),CYP11B2; [8],20.0 kBq/cm2
same,NSB (non-specific binding),CYP11B2; [8],1.0 kBq/cm2
same,SB (specific binding),"CYP11B2; specimen 2c (low), case 2, PHA",3.0 kBq/cm2
same,TB (total binding),"CYP11B2; specimen 2c (low), case 2, PHA",3.3 kBq/cm2
same,NSB (non-specific binding),"CYP11B2; specimen 2c (low), case 2, PHA",0.3 kBq/cm2
same,SB (specific binding),"CYP11B2; specimen 3a, case 3, PHA",6.8 kBq/cm2
same,TB (total binding),"CYP11B2; specimen 3a, case 3, PHA",7.6 kBq/cm2
same,NSB (non-specific binding),"CYP11B2; specimen 3a, case 3, PHA",0.7 kBq/cm2
same,SB (specific binding),CYP11B2; [9],10.4 kBq/cm2
same,TB (total binding),CYP11B2; [9],15.5 kBq/cm2
same,NSB (non-specific binding),CYP11B2; [9],5.1 kBq/cm2
same,SB (specific binding),"CYP11B2; specimen 3b (low), case 3, PHA",3.0 kBq/cm2
same,TB (total binding),"CYP11B2; specimen 3b (low), case 3, PHA",4.3 kBq/cm2
same,NSB (non-specific binding),"CYP11B2; specimen 3b (low), case 3, PHA",1.2 kBq/cm2
same,SB (specific binding),"CYP11B2; specimen 4a, case 4, PHA",3.6 kBq/cm2
same,TB (total binding),"CYP11B2; specimen 4a, case 4, PHA",4.2 kBq/cm2
same,NSB (non-specific binding),"CYP11B2; specimen 4a, case 4, PHA",0.6 kBq/cm2
same,SB (specific binding),"CYP11B2; specimen 4b, case 4, PHA",16.5 kBq/cm2
same,TB (total binding),"CYP11B2; specimen 4b, case 4, PHA",18.4 kBq/cm2
same,NSB (non-specific binding),"CYP11B2; specimen 4b, case 4, PHA",1.9 kBq/cm2
same,SB (specific binding),"CYP11B2; specimen 5a, case 5, PHA",5.1 kBq/cm2
same,TB (total binding),"CYP11B2; specimen 5a, case 5, PHA",5.9 kBq/cm2
same,NSB (non-specific binding),"CYP11B2; specimen 5a, case 5, PHA",0.8 kBq/cm2
same,SB (specific binding),"CYP11B2; specimen 5b, case 5, PHA",4.2 kBq/cm2
same,TB (total binding),"CYP11B2; specimen 5b, case 5, PHA",5.1 kBq/cm2
same,NSB (non-specific binding),"CYP11B2; specimen 5b, case 5, PHA",0.9 kBq/cm2
same,SB (specific binding),"CYP11B2; specimen 5c, case 5, PHA",3.5 kBq/cm2
same,TB (total binding),"CYP11B2; specimen 5c, case 5, PHA",4.5 kBq/cm2
same,NSB (non-specific binding),"CYP11B2; specimen 5c, case 5, PHA",1.0 kBq/cm2
same,SB (specific binding),CYP11B2; [10],< LOQ; also recorded: limit of quantification
same,TB (total binding),CYP11B2; [10],< LOQ
same,NSB (non-specific binding),CYP11B2; [10],< LOQ
same,SB (specific binding),CYP11B2; [11],4.0 kBq/cm2
same,TB (total binding),CYP11B2; [11],5.3 kBq/cm2
same,NSB (non-specific binding),CYP11B2; [11],1.3 kBq/cm2
same,SB (specific binding),CYP11B2; [12],0.5 kBq/cm2
same,TB (total binding),CYP11B2; [12],1.7 kBq/cm2
same,NSB (non-specific binding),CYP11B2; [12],1.2 kBq/cm2
same,SB (specific binding),"CYP11B2; specimen 8a, case 8, Cushing's",3.2 kBq/cm2
same,TB (total binding),"CYP11B2; specimen 8a, case 8, Cushing's",3.7 kBq/cm2
same,NSB (non-specific binding),"CYP11B2; specimen 8a, case 8, Cushing's",0.5 kBq/cm2
same,hCYP11B2 selectivity (B2/B1 ratio),human CYP11B2 [3],93
same,ratio between tracer uptake in adrenals and kidneys,[4]; 15 min postinjection,1.2
same,activity level in kidneys,[4]; [13],5.2 ± 3.5 % ID/g
same,activity level in liver,[4]; [13],11.8 ± 4.1 % ID/g
same,activity level in small intestines,[4]; [13],4.3 ± 4.7 % ID/g
same,activity level in adrenals,"[4]; biodistribution, 15 min postinjection, n = 2",6.1 % ID/g
same,activity level in adrenals,"[4]; biodistribution, 30 min postinjection",4.0 ± 2.5 % ID/g
same,activity level in kidneys,[4]; [14],5.7 ± 2.9 % ID/g
same,activity level in liver,[4]; [14],12.4 ± 5.9 % ID/g
same,activity level in adrenals,"[4]; biodistribution, 60 min postinjection",1.8 ± 1.1 % ID/g
same,time for liver activity to decrease to half the peak value,[5],≤ 30 min
same,peak liver activity,[5]; at 6 min postinjection,48 ± 11 % ID/g
same,level of activity in muscle,"[5]; knee extensors, throughout scan (1 h)",< 1.5 % ID/g
same,time of peak liver activity,[5]; postinjection,6 min
same,IC50,hCYP11B1,435 nM
same,IC50,human CYP11B2 [1],4.7 nM
